Experimental data published in article PMC11003488 (Journal of Enzyme Inhibition and Medicinal Chemistry, 2023).

Columns and labels:
BT-549 = test: NCI-60 SRB growth inhibition, one-dose and five-dose; format: cell-based; conditions: Homo sapiens, BT-549, read-out: percent growth inhibition
HCC-2998 = test: as above; format: cell-based; conditions: Homo sapiens, HCC 2998, read-out: percent growth inhibition
SF-268 = test: as above; format: cell-based; conditions: Homo sapiens, SF-268, read-out: percent growth inhibition
NCI-H23 = test: as above; format: cell-based; conditions: Homo sapiens, NCI-H23, read-out: percent growth inhibition
M14 = test: as above; format: cell-based; conditions: Homo sapiens, M14, read-out: percent growth inhibition
IGROV1 = test: as above; format: cell-based; conditions: Homo sapiens, IGROV-1, read-out: percent growth inhibition
HT29 = test: as above; format: cell-based; conditions: Homo sapiens, HT-29, read-out: percent growth inhibition
HCT-116 = test: as above; format: cell-based; conditions: Homo sapiens, HCT-116, read-out: percent growth inhibition
NCI-H460 = test: as above; format: cell-based; conditions: Homo sapiens, NCI-H460, read-out: percent growth inhibition
SK-OV-3 = test: as above; format: cell-based; conditions: Homo sapiens, SK-OV-3, read-out: percent growth inhibition
NCI/ADR-RES = test: as above; format: cell-based; conditions: Homo sapiens, read-out: percent growth inhibition
ACHN = test: as above; format: cell-based; conditions: Homo sapiens, read-out: percent growth inhibition
OVCAR-3 = test: as above; format: cell-based; conditions: Homo sapiens, OVCAR-3, read-out: percent growth inhibition
T-47D = test: as above; format: cell-based; conditions: Homo sapiens, T47D, read-out: percent growth inhibition
SK-MEL-2 = test: as above; format: cell-based; conditions: Homo sapiens, SK-MEL-2, read-out: percent growth inhibition
NCI-H522 = test: as above; format: cell-based; conditions: Homo sapiens, NCI-H522, read-out: percent growth inhibition
TK-10 = test: as above; format: cell-based; conditions: Homo sapiens, TK-10, read-out: percent growth inhibition
SK-MEL-5 = test: as above; format: cell-based; conditions: Homo sapiens, SK-MEL-5, read-out: percent growth inhibition
786-0 = test: as above; format: cell-based; conditions: Homo sapiens, 786-0, read-out: percent growth inhibition
EKVX = test: as above; format: cell-based; conditions: Homo sapiens, read-out: percent growth inhibition
U251 = test: as above; format: cell-based; conditions: Homo sapiens, U-251, read-out: percent growth inhibition
K-562 = test: as above; format: cell-based; conditions: Homo sapiens, K562, read-out: percent growth inhibition
MCF7 = test: as above; format: cell-based; conditions: Homo sapiens, MCF7, read-out: percent growth inhibition
OVCAR-4 = test: as above; format: cell-based; conditions: Homo sapiens, OVCAR-4, read-out: percent growth inhibition
COLO 205 = test: as above; format: cell-based; conditions: Homo sapiens, COLO 205, read-out: percent growth inhibition
CCRF-CEM = test: as above; format: cell-based; conditions: Homo sapiens, read-out: percent growth inhibition
KM12 = test: as above; format: cell-based; conditions: Homo sapiens, KM12, read-out: percent growth inhibition
A498 = test: as above; format: cell-based; conditions: Homo sapiens, A498, read-out: percent growth inhibition
MALME-3M = test: as above; format: cell-based; conditions: Homo sapiens, read-out: percent growth inhibition
[1] = test system: NCI 60-cell line panel (full panel); test: NCI-60 SRB growth inhibition, full panel mean / MG-MID; format: cell-based, human; conditions: mean over NCI-60 panel; single dose 10 µM
LOX IMVI = test: NCI-60 SRB growth inhibition, one-dose and five-dose; format: cell-based; conditions: Homo sapiens, read-out: percent growth inhibition
UACC-62 = test: as above; format: cell-based; conditions: Homo sapiens, UACC-62, read-out: percent growth inhibition
HOP-92 = test: as above; format: cell-based; conditions: Homo sapiens, HOP-92, read-out: percent growth inhibition
NCI-H322M = test: as above; format: cell-based; conditions: Homo sapiens, read-out: percent growth inhibition
OVCAR-5 = test: as above; format: cell-based; conditions: Homo sapiens, OVCAR-5, read-out: percent growth inhibition
NCI-H226 = test: as above; format: cell-based; conditions: Homo sapiens, NCI-H226, read-out: percent growth inhibition
SK-MEL-28 = test: as above; format: cell-based; conditions: Homo sapiens, SK-MEL-28, read-out: percent growth inhibition
HS 578 T = test: as above; format: cell-based; conditions: Homo sapiens, read-out: percent growth inhibition
SNB-75 = test: as above; format: cell-based; conditions: Homo sapiens, SNB-75, read-out: percent growth inhibition
HCT-15 = test: as above; format: cell-based; conditions: Homo sapiens, HCT-15, read-out: percent growth inhibition
PC-3 = test: as above; format: cell-based; conditions: Homo sapiens, PC-3, read-out: percent growth inhibition
HOP-62 = test: as above; format: cell-based; conditions: Homo sapiens, HOP-62, read-out: percent growth inhibition

## CC(=O)Nc1ccc(/C=C/C(=O)c2cccc(NCc3ccc4oc(=O)ccc4c3)c2)cc1 [Compound 5k, (E)-N-(4–(3-oxo-3–(3-(((2-oxo-2H-chromen-6-yl)methyl)amino)phenyl)prop-1-en-1-yl)phenyl)acetamide]
BT-549
  inhibition at 10 µM: 55.8%
HCC-2998
  inhibition at 10 µM: 10%
SF-268
  inhibition at 10 µM: 18.2%
NCI-H23
  inhibition at 10 µM: 38.6%
M14
  inhibition at 10 µM: 30.6%
IGROV1
  inhibition at 10 µM: 23.3%
HT29
  inhibition at 10 µM: 15.6%
HCT-116
  inhibition at 10 µM: 78.8%
NCI-H460
  inhibition at 10 µM: 22.7%
SK-OV-3
  inhibition at 10 µM: 3.88%
NCI/ADR-RES
  inhibition at 10 µM: 68.9%
ACHN
  inhibition at 10 µM: 34.7%
OVCAR-3
  inhibition at 10 µM: 41.7%
T-47D
  inhibition at 10 µM: 66%
SK-MEL-2
  inhibition at 10 µM: 35.7%
NCI-H522
  inhibition at 10 µM: 36.3%
TK-10
  inhibition at 10 µM: 25.8%
SK-MEL-5
  inhibition at 10 µM: 76.3%
786-0
  inhibition at 10 µM: 24.2%
EKVX
  inhibition at 10 µM: 64.5%
U251
  inhibition at 10 µM: 49%
K-562
  inhibition at 10 µM: 93.3%
MCF7
  inhibition at 10 µM: 73.6%
OVCAR-4
  inhibition at 10 µM: 43.9%
COLO 205
  inhibition at 10 µM: -13.2%
CCRF-CEM
  inhibition at 10 µM: 87.9%
KM12
  inhibition at 10 µM: 34.4%
A498
  inhibition at 10 µM: 20.4%
MALME-3M
  inhibition at 10 µM: 37.8%
[1]
  Full panel Mean GI %: 39.00%
LOX IMVI
  inhibition at 10 µM: 57.8%
UACC-62
  inhibition at 10 µM: 67.5%
HOP-92
  inhibition at 10 µM: 3.27%
NCI-H322M
  inhibition at 10 µM: 15.3%
OVCAR-5
  inhibition at 10 µM: 16.8%
NCI-H226
  inhibition at 10 µM: 35.7%
SK-MEL-28
  inhibition at 10 µM: 21.2%
HS 578 T
  inhibition at 10 µM: 22.1%
SNB-75
  inhibition at 10 µM: 25.4%
HCT-15
  inhibition at 10 µM: 50.7%
PC-3
  inhibition at 10 µM: 27.6%
HOP-62
  inhibition at 10 µM: 10.8%

## CC(=O)Nc1ccc(CNc2cccc(C(=O)/C=C/c3c[nH]cn3)c2)cc1 [Compound 5l, (E)-N-(4-(((3–(3-(1H-imidazol-4-yl)acryloyl)phenyl)amino)methyl)phenyl)acetamide]
BT-549
  inhibition at 10 µM: 34.9%
HCC-2998
  inhibition at 10 µM: -2.31%
SF-268
  inhibition at 10 µM: 19.4%
NCI-H23
  inhibition at 10 µM: 11.5%
M14
  inhibition at 10 µM: 13.5%
IGROV1
  inhibition at 10 µM: 8.09%
HT29
  inhibition at 10 µM: 8.22%
HCT-116
  inhibition at 10 µM: 29.4%
NCI-H460
  inhibition at 10 µM: 4.86%
SK-OV-3
  inhibition at 10 µM: -9.94%
NCI/ADR-RES
  inhibition at 10 µM: -1.58%
ACHN
  inhibition at 10 µM: 15.4%
OVCAR-3
  inhibition at 10 µM: 33.8%
T-47D
  inhibition at 10 µM: 56.9%
SK-MEL-2
  inhibition at 10 µM: 12.8%
NCI-H522
  inhibition at 10 µM: 64.2%
TK-10
  inhibition at 10 µM: 12.9%
SK-MEL-5
  inhibition at 10 µM: 16%
786-0
  inhibition at 10 µM: 11.6%
EKVX
  inhibition at 10 µM: 24.8%
U251
  inhibition at 10 µM: 48.3%
K-562
  inhibition at 10 µM: 80.8%
MCF7
  inhibition at 10 µM: 81.8%
OVCAR-4
  inhibition at 10 µM: 17.3%
COLO 205
  inhibition at 10 µM: -8.23%
CCRF-CEM
  inhibition at 10 µM: 98%
KM12
  inhibition at 10 µM: 43.6%
A498
  inhibition at 10 µM: 11.1%
MALME-3M
  inhibition at 10 µM: 26.4%
[1]
  Full panel Mean GI %: 24.10%
LOX IMVI
  inhibition at 10 µM: 45.3%
UACC-62
  inhibition at 10 µM: 34%
HOP-92
  inhibition at 10 µM: 12.3%
NCI-H322M
  inhibition at 10 µM: 12.8%
OVCAR-5
  inhibition at 10 µM: 5.08%
NCI-H226
  inhibition at 10 µM: 21.7%
SK-MEL-28
  inhibition at 10 µM: 13.4%
HS 578 T
  inhibition at 10 µM: 7.6%
SNB-75
  inhibition at 10 µM: 11.7%
HCT-15
  inhibition at 10 µM: 14.3%
PC-3
  inhibition at 10 µM: 7.64%
HOP-62
  inhibition at 10 µM: 5.06%
